Data reported in article PMC5740388, “In Vitro Antibacterial Properties of Cefiderocol, a Novel Siderophore Cephalosporin, against Gram-Negative Bacteria” (Antimicrobial Agents and Chemotherapy, 2017).
Where two headings read alike, the source gives them in different places.

Legend:
Type in all cases: binding
[1] = biological target: T1, PBP2 of P. aeruginosa ATCC 27853 (Pseudomonas aeruginosa, UniProt Q9X6V3); test: competition with […]benzylpenicillin for PBPs; conditions: covalent; read-out: IC50 (μg/ml) / E. coli NIHJ JC-2 / Ceftazidime
T1 construct: gene pbpA
T1 sequence (Q9X6V3 1-646): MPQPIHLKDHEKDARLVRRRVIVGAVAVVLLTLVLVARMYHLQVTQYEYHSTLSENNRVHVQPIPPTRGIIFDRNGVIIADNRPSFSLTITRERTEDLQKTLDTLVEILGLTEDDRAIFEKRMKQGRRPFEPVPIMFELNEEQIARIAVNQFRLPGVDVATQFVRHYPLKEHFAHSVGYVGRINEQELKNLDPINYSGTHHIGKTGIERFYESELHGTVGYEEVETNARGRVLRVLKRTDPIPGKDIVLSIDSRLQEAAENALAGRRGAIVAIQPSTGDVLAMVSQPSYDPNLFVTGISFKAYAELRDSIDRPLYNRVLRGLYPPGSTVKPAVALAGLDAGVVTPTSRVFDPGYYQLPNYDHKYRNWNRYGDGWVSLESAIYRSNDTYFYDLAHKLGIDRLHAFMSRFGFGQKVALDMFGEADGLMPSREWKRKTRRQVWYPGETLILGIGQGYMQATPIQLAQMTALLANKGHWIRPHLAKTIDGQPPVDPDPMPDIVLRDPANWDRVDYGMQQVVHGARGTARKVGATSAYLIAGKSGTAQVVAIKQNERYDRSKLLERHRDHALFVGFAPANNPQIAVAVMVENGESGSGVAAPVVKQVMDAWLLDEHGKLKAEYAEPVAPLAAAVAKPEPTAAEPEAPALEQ

[2] = biological target: T2, PBP1b of P. aeruginosa ATCC 27853 (Pseudomonas aeruginosa, UniProt G3XD31); test: competition with […]benzylpenicillin for PBPs; conditions: covalent; read-out: IC50 (μg/ml) / Ceftazidime
T2 construct: gene mrcB
T2 sequence (G3XD31 1-774): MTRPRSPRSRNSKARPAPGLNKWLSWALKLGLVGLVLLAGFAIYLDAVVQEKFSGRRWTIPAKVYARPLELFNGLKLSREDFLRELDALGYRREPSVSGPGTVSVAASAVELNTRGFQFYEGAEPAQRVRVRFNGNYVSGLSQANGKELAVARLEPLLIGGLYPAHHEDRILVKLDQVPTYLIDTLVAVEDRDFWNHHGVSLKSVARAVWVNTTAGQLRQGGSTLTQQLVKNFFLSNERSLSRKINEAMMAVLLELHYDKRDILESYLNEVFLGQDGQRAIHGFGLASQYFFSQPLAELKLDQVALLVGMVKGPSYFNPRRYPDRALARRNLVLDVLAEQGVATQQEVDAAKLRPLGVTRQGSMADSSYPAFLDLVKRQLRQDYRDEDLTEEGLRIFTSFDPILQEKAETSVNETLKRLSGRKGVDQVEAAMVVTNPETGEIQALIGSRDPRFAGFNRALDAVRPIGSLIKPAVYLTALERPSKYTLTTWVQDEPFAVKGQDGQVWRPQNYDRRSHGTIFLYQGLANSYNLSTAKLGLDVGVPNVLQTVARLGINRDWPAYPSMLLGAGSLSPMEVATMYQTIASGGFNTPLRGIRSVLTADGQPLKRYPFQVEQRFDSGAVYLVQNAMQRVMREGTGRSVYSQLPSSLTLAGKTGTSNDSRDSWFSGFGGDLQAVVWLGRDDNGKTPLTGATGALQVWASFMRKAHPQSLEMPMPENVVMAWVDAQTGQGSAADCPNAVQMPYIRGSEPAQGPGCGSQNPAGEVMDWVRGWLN

[3] = biological target: T3, PBP4 of E. coli NIHJ JC-2 (Escherichia coli, UniProt P24228); test: competition with […]benzylpenicillin for PBPs; conditions: read-out: % inhibition at 4 μg/ml
T3 construct: gene dacB

[4] = biological target: T4, PBP2 of A. baumannii ATCC 17978 (Acinetobacter baumannii, UniProt D0C8Z9); test: competition with Bocillin FL for PBPs; conditions: covalent
T4 construct: gene mrdA
T4 sequence (D0C8Z9 1-672): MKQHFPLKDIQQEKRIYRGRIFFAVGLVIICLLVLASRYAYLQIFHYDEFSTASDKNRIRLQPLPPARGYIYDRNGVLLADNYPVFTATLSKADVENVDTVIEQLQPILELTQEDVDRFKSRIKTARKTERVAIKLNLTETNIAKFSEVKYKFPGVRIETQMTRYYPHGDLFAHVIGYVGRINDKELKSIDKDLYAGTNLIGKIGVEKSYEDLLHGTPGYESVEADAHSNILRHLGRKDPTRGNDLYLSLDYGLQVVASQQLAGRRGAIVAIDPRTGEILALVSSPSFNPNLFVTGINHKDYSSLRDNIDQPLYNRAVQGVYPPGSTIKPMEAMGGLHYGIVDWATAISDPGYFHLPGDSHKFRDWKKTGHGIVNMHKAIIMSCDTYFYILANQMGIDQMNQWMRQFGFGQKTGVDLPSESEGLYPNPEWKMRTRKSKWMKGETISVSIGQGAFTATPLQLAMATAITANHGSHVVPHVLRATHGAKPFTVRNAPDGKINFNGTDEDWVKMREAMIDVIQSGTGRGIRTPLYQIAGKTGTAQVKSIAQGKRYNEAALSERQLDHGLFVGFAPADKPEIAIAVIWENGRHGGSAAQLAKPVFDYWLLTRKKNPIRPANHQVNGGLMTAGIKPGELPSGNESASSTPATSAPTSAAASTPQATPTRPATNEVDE
Source text: competition with Bocillin FL for PBPs on PBP2 of A. baumannii ATCC 17978

[5] = biological target: T3, PBP4 of E. coli NIHJ JC-2; test: competition with […]benzylpenicillin for PBPs; conditions: covalent; read-out: IC50 (μg/ml) / E. coli NIHJ JC-2 / Ceftazidime

CC(C)(O/N=C(\C(=O)N[C@@H]1C(=O)N2C(C(=O)[O-])=C(C[N+]3(CCNC(=O)c4ccc(O)c(O)c4Cl)CCCC3)CS[C@H]12)c1csc(N)n1)C(=O)O [cefiderocol]
IC50 [1]: > 5.32 µM
IC50 [2]: > 5.32 µM
inhibition at 4 µg/mL [3]: 63%
IC50 ([4]; read-out: IC50 (μg/ml) / A. baumannii ATCC 17978 ^a / Cefiderocol (converted)): 3.07 µM

CC(C)(O/N=C(\C(=O)N[C@@H]1C(=O)N2C(C(=O)[O-])=C(C[n+]3ccccc3)CS[C@H]12)c1csc(N)n1)C(=O)O [ceftazidime]
IC50 [1]: > 7.32 µM
IC50 [5]: > 1.83 µM
IC50 [2]: > 7.32 µM
IC50 ([4]; read-out: IC50 (μg/ml) / A. baumannii ATCC 17978 ^a / Ceftazidime): > 117 µM
